The values below come from article PMC11588247, “Antimicrobial and antioxidant activities of peptide derived from turmeric plant (Curcuma longa L)” (PLOS ONE, 2024).

Ends that are not written are not given here.

Assay [1] can be described thus: ABTS radical scavenging assay. The conditions noted are these: 10 μL sample + 190 μL ABTS solution, 5 min dark, absorbance 750 nm, ascorbic acid standard; hydrolysate at 100 μg/mL. The protocol:
Radical scavenging antioxidant activity was determined according to the ABTS radical scavenging activity following the method described by Re et al. with slight modifications. Briefly, the solution of ABTS radical was prepared from the reaction between 7 mM ABTS (2,2-azino-bis (3-ethylbenzothiazoline-6-sulphonic acid) diammonium salt) and 2.45 mM ammonium persulphate. The resulting ABTS solution was diluted with distilled water to achieve an optical density of 0.7 at 750 nm. Then, a sample or standard of 10 μL was mixed with 190 μL of ABTS solution and incubated for 5 minutes in the dark. The absorbance was measured at 750 nm by a microplate reader (Synergy H1 Hybrid Multi-Mode Reader, Biotek, Winusky, VT, USA). Ascorbic acid was used as the standard.

Assay [2] is described as follows: DPPH radical scavenging assay. Particulars: 10 μL sample + 190 μL 0.1 mM DPPH, 30 min dark, room temperature, absorbance 517 nm, ascorbic acid standard; hydrolysate at 100 μg/mL. The protocol:
The DPPH radical scavenging activity of the sample was evaluated following the protocol by Muangrod et al. with slight modifications. Briefly, 190 μL of 0.1 mM DPPH was mixed with 10 μL of the sample or standard ascorbic acid in each well and incubated at room temperature in the dark for 30 minutes. The absorbance of the mixture was measured at 517 nm using a microplate reader (Synergy H1 Hybrid Multi-Mode Reader, Biotek, Winusky, VT, USA). The percentage inhibition of DPPH radical scavenging activity was calculated using the following equation: %DPPHinhibition=[(Acontrol−Asample)/Acontrol]×100 (2) where A control means the absorbance of the control that contained all reagents except the test samples, and A sample means the absorbance of the mixture (sample and 0.1 mM DPPH). Ascorbic acid was used as the standard. Results were expressed as μg ascorbic acid equivalent (μg AAE g^−1).
In general terms: The DPPH test is a chemical assay of radical scavenging.

Assay [3] in a line: FRAP (ferric ion-reducing antioxidant power) assay. Particulars: 10 μL sample + 190 μL FRAP reagent (acetate pH 3.6, TPTZ, FeCl3), 30 min dark, absorbance 593 nm, ascorbic acid standard; hydrolysate at 100 μg/mL. The procedure:
The ferric ion-reducing antioxidant power assay was analyzed according to the method by Rumpf et al. with minor modifications. Briefly, the FRAP reagent was prepared from 300 mM sodium acetate (pH 3.6) and 10 mM TPTZ (2,4,6-tris (2-pyridyl)-s-triazine) in 40 mM HCl and 20 mM ferric chloride at the ratio of 10:1:1, respectively. Then, a 10 μL aliquot of the sample or standard was mixed with 190 μL of the FRAP reagent before incubating in the dark for 30 minutes. The absorbance was measured at 593 nm using a microplate reader (Synergy H1 Hybrid Multi-Mode Reader, Biotek, Winusky, VT, USA). Ascorbic acid (Sigma-Aldrich, Singapore) was used as the standard. Results were expressed as micrograms of ascorbic acid equivalent per gram (μg AAE g^−1).

In assay [4] the test system is Acinetobacter baumannii (ATCC 19606). Briefly: microbe, parasite or virus in culture. The class given is cell-based. The conditions noted are these: sample 100 μg/mL, 6 h at 37°C, MTT OD570 vs inoculated broth control. An excerpt:
(§1) Pathogenic microorganism composes of Escherichia coli (ATCC 25922), Staphylococcus aureus (ATCC 25923), Staphylococcus epidermidis (ATCC 12228), Bacillus subtilis (ATCC 6633), Bacillus cereus (ATCC 11778), Pseudomonas aeruginosa (ATCC 27853), Vibrio parahaemolyticus (ATCC 17802), Klebsiella pneumoniae (ATCC 27736), Acinetobacter baumannii (ATCC 19606), Enterobacter cloacae (ATCC 13047), Salmonella enterica (ATCC 13311), and Salmonella Typhi (ATCC 22842) were used in the experiments.
(§2) Bacteria were initially cultured on Tryptic Soy Agar (TSA) plates at 37°C for 12–16 hours. A single colony was transferred to Tryptic Soy Broth (TSB) and incubated at 37°C with gently agitation at 100 rpm, for an additional 12–16 hours. The bacterial concentration was adjusted to an optical density at 600 nm (OD600) of 0.05, corresponding to 4 x 10^7 CFU/mL, before being added to a 96-well plate (50 μL per well). Subsequently, 50 μL of protein hydrolysate or peptide was inoculated into each well at a final concentration of 100 μg/mL, and the mixture was incubated at 37°C with continuous shaking at 100 rpm for 6 hours. Wells with inoculated broth alone served as a negative control, while wells containing Ampicillin (100 μg/mL) served as a positive control. Following incubation, 25 μL of a 100 μg/mL MTT (3-(4,5-dimethylthiazol-2-yl)-2,5-diphenyltetrazolium bromide) solution was added to each well, thoroughly mixed, and incubated at room temperature for 4 hours. The optical density at 570 nm (OD570nm) was subsequently measured using a microplate reader (Synergy H1 Hybrid Multi-Mode Reader, Biotek, Winusky, VT, USA). The percentage of inhibition was calculated using the provided equation: [(OD570control–OD570test)/OD570control]×100 (1)

Assay [5] has as its system Salmonella enterica (ATCC 13311). Briefly: microbe, parasite or virus in culture. It is filed as cell-based. The conditions noted are these: sample 100 μg/mL, 6 h at 37°C, MTT OD570 vs inoculated broth control.
From the text: as §1, §2

Assay [6] concerns Staphylococcus aureus (ATCC 25923). As to the kind of experiment: microbe, parasite or virus in culture. The class given is cell-based. Particulars: sample 100 μg/mL, 6 h at 37°C, MTT OD570 vs inoculated broth control.
From the text: as §1, §2

The subject of assay [7] is Staphylococcus epidermidis (ATCC 12228). As to the kind of experiment: microbe, parasite or virus in culture. The class given is cell-based. Particulars: sample 100 μg/mL, 6 h at 37°C, MTT OD570 vs inoculated broth control.
From the text: as §1, §2

For ARLLLLKP [Cur-8], the “ABTS radical-scavenging activity (antioxidant activity ± SD)” value in assay [1] was 0.13±0.00 μg AAE g^−1. For the same sequence, in assay [2], the “DPPH radical scavenging activity (antioxidant activity ± SD)” value stood at 0.58±0.00 μg AAE g^−1. In addition, the “FRAP (antioxidant activity ± SD)” value in assay [3] turned out to be 1.05±0.01 μg AAE g^−1.
As to HAFRDAVTPLE [Cur-12], the “ABTS radical-scavenging activity (antioxidant activity ± SD)” value in assay [1] stood at 0.02±0.00 μg AAE g^−1. Also, the “DPPH radical scavenging activity (antioxidant activity ± SD)” value in assay [2] worked out at 0.60±0.06 μg AAE g^−1. For the same sequence, in assay [3], the “FRAP (antioxidant activity ± SD)” value was determined as 1.04±0.01 μg AAE g^−1.
With KLHLLILI [Cur-1], the “Inhibitory Percentage (Means±SD), Acinetobacter baumannii ATCC 19606” value in assay [4] (listed as Cur-25) was “inhibited growth”. In assay [5] (listed as Cur-25), the “Inhibitory Percentage (Means±SD), Salmonella enterica ATCC 13311” value is on record as “inhibited growth”. For the same sequence, in assay [6] (listed as Cur-25), the “Inhibitory Percentage (Means±SD), Staphylococcus aureus ATCC 25923” value is listed as “inhibited growth”. Further, the “Inhibitory Percentage (Means±SD), Staphylococcus epidermidis ATCC 12228” value in assay [7] (listed as Cur-25) is listed as “inhibited growth”. The “ABTS radical-scavenging activity (antioxidant activity ± SD)” value in assay [1] worked out at 0.22±0.00 μg AAE g^−1. Further, the “DPPH radical scavenging activity (antioxidant activity ± SD)” value in assay [2] is 0.63±0.04 μg AAE g^−1. Further, the “FRAP (antioxidant activity ± SD)” value in assay [3] is 1.05±0.01 μg AAE g^−1.
Consider LKKPVILL [Cur-11], for which the “ABTS radical-scavenging activity (antioxidant activity ± SD)” value in assay [1] was found to be 0.17±0.01 μg AAE g^−1. Further, the “DPPH radical scavenging activity (antioxidant activity ± SD)” value in assay [2] was determined as 0.68±0.02 μg AAE g^−1. Moreover, in assay [3], the “FRAP (antioxidant activity ± SD)” value is listed as 1.05±0.01 μg AAE g^−1.
The matching figures for LKKTLLLVNKADLLP [Cur-5]: 0.12±0.00 μg AAE g^−1, 0.62±0.01 μg AAE g^−1 and 1.04±0.00 μg AAE g^−1.
PKVKILIL [Cur-4]: in assay [1], the “ABTS radical-scavenging activity (antioxidant activity ± SD)” value was found to be 0.15±0.00 μg AAE g^−1. Moreover, in assay [2], the “DPPH radical scavenging activity (antioxidant activity ± SD)” value was found to be 0.77±0.01 μg AAE g^−1. In addition, the “FRAP (antioxidant activity ± SD)” value in assay [3] stood at 1.08±0.09 μg AAE g^−1.
As to PLKLLLPL [Cur-7], the “ABTS radical-scavenging activity (antioxidant activity ± SD)” value in assay [1] was 0.15±0.00 μg AAE g^−1. For the same sequence, in assay [2], the “DPPH radical scavenging activity (antioxidant activity ± SD)” value was determined as 0.74±0.02 μg AAE g^−1. For the same sequence, the “FRAP (antioxidant activity ± SD)” value in assay [3] was 1.04±0.00 μg AAE g^−1.
On to PLLLKLIV [Cur-2], for which the “Inhibitory Percentage (Means±SD), Acinetobacter baumannii ATCC 19606” value in assay [4] (listed as Cur-14) is reported as “inhibited growth”. Also, the “Inhibitory Percentage (Means±SD), Salmonella enterica ATCC 13311” value in assay [5] (listed as Cur-14) was “inhibited growth”. In assay [6] (listed as Cur-14), the “Inhibitory Percentage (Means±SD), Staphylococcus aureus ATCC 25923” value was “inhibited growth”. Further, the “Inhibitory Percentage (Means±SD), Staphylococcus epidermidis ATCC 12228” value in assay [7] (listed as Cur-14) was “inhibited growth”. In addition, in assay [1], the “ABTS radical-scavenging activity (antioxidant activity ± SD)” value was 0.13±0.00 μg AAE g^−1. In assay [2], the “DPPH radical scavenging activity (antioxidant activity ± SD)” value turned out to be 0.75±0.03 μg AAE g^−1. For the same sequence, the “FRAP (antioxidant activity ± SD)” value in assay [3] is recorded as 1.05±0.01 μg AAE g^−1.
With QIILLLLKP [Cur-9], the “ABTS radical-scavenging activity (antioxidant activity ± SD)” value in assay [1] turned out to be 0.07±0.00 μg AAE g^−1. In addition, the “DPPH radical scavenging activity (antioxidant activity ± SD)” value in assay [2] worked out at 0.70±0.00 μg AAE g^−1. Besides, in assay [3], the “FRAP (antioxidant activity ± SD)” value was 1.04±0.02 μg AAE g^−1.
For the sequence VHVLLLIL [Cur-10], the “ABTS radical-scavenging activity (antioxidant activity ± SD)” value in assay [1] turned out to be 0.30±0.01 μg AAE g^−1. In assay [2], the “DPPH radical scavenging activity (antioxidant activity ± SD)” value is reported as 0.75±0.04 μg AAE g^−1. Further, the “FRAP (antioxidant activity ± SD)” value in assay [3] was 1.04±0.00 μg AAE g^−1.
Regarding VKLKIPLLIL [Cur-3], the “ABTS radical-scavenging activity (antioxidant activity ± SD)” value in assay [1] was 0.08±0.00 μg AAE g^−1. In addition, the “DPPH radical scavenging activity (antioxidant activity ± SD)” value in assay [2] was 0.67±0.00 μg AAE g^−1. Further, the “FRAP (antioxidant activity ± SD)” value in assay [3] is reported as 1.04±0.00 μg AAE g^−1.
On to VLKKLLPLL [Cur-6], for which the “ABTS radical-scavenging activity (antioxidant activity ± SD)” value in assay [1] worked out at 0.09±0.01 μg AAE g^−1. Besides, the “DPPH radical scavenging activity (antioxidant activity ± SD)” value in assay [2] was found to be 0.67±0.06 μg AAE g^−1. Also, in assay [3], the “FRAP (antioxidant activity ± SD)” value was found to be 1.05±0.00 μg AAE g^−1.
